Laboratory results taken from patent US20260207623A1, “USE OF ESTETROL IN HEPATICALLY IMPAIRED PATIENTS” (ESTETRA SRL, priority 2022, published 2026).
Where “and” joins values, the source holds several entries; their conditions need not be identical. Equal entries are not always repeated. Where two headings read alike, the source gives them in different places.

Test: Phase 1 pharmacokinetic study of a single oral dose of 20 mg E4 monohydrate in female subjects with normal hepatic function and mild, moderate or severe hepatic impairment (plasma, LC-MS/MS, non-compartmental analysis)
Format: in vivo, human
Settings: for AUC(0-t) / Cmax / half-life / Tmax / Vd/F / AUC(0-inf): female, human, plasma, po, 20 mg; for Tmax: read-out: Tmax, Median
Experimental: This was a Phase 1, multi-centre, open-label, PK, and safety study of a single oral dose of 20 mg E4 monohydrate in female subjects with normal hepatic function (Group 1), mild hepatic impairment (Group 2), moderate hepatic impairment (Group 3), and severe hepatic impairment (Group 4), as defined using the Child-Pugh classification at Screening.
The study consisted of an eligibility Screening period (within 28 days prior to study drug administration), an Assessment Period with in-house period and outpatient visits (including a single oral dose of 20 mg E4 on Day 1), and a follow up visit. All subjects were confined to the study site from Day-1 (the day before dosing) until Day 4 and returned to the site every day from Day 5 to Day 9. Alternatively, the subjects could stay for a prolonged in-house period in agreement with the Investigator. The follow-up visit occurred on Day 14 (+2 days).
All subjects arrived at the study site in the morning of Day-1 in a fasted state (no food for at least 8 h, water was allowed) to have the scheduled assessments performed in order to confirm eligibility as outlined in the inclusion and exclusion criteria (Section 2.3.1 and Section 2.3.2, respectively). In the morning of Day 1 following an overnight fast, the subjects received oral dosing of 20 mg E4 monohydrate and remained at the site. Study-related assessments were performed at time points indicated in the Schedule of Assessments in Table 2.
Serial blood sampling for PK assessments started on Day 1 and proceeded until Day 9 according to the Pharmacokinetic Sampling Schedule presented in Table 3.
Each enrolled subject was to receive a single oral dose of 20 mg of E4 (estetrol) as monohydrate as a film-coated tablet.
Study drug was administered to subjects in the morning after an overnight fast of at least 8 h.
Calculation of non-compartmental PK parameters were done using WinNonlin™ Professional, Version 6.3 or higher.
The primary PK parameters to be analyzed for E4 in plasma: • Cmax=maximum observed plasma concentration • AUCinf=area under the concentration-time curve (AUC) from time zero extrapolated to infinity
The analysis of E4 and the metabolites E4-3-glucuronide and E4-16-glucuronide in plasma samples were performed at the Bioanalytical Laboratory of the CRO using a validated liquid chromatography-mass spectrometry/mass spectrometry method.
Individual and mean plasma concentrations at each sampling time point for E4 are presented by listings and descriptive summary statistics including means, geometric means (GMs), medians, ranges, standard deviations (SD) and coefficients of variation (CV). Individual, mean and/or median concentrations per hepatic function group were plotted versus time on semilogarithmic scales.
PK parameters were calculated by non-compartmental analysis. PK parameters were analysed using descriptive statistics and are presented by hepatic function group.
Analysis of variance (ANOVA) were used to compare primary PK parameters of E4 (Cmax and AUCinf) between subjects with hepatic impairment and subjects with normal hepatic function in an exploratory approach, using the log-transformed value of each PK parameter as dependent variable, and the hepatic impairment group (normal, mild, moderate, and severe) as a fixed classification factor. Geometric least squares means were used to calculate the ratios of primary PK parameters for each hepatic impairment group to those in the control group, along with 90% confidence intervals (CIs).
Additionally, the impact of age and BMI on the effect of hepatic impairment were evaluated using an ANOVA model similar as the ANOVA model described above, but with the interaction between each factor and the hepatic impairment group included as an additional factor.
The relationship between log-transformed PK parameters (Cmax and AUCinf) and continuous parameters (albumin, total bilirubin, and prothrombin time) used for the Child-Pugh score was explored by a linear regression approach. […]

[1] = mild hepatic impairment, single oral dose 20 mg
[2] = moderate hepatic impairment, single oral dose 20 mg
[3] = severe hepatic impairment, single oral dose 20 mg

C[C@]12CC[C@@H]3c4ccc(O)cc4CC[C@H]3[C@@H]1[C@@H](O)[C@@H](O)[C@@H]2O [E4, 1,3,5 (10)-estratrien-3,15alpha, 16alpha, 17beta-tetrol]
AUC(0-t) (Moderate hepatic impairment, single oral dose 20 mg E4 monohydrate, read-out: AUClast, Mean): 122 ng·h/mL | AUC(0-t) (Moderate hepatic impairment, single oral dose 20 mg E4 monohydrate, read-out: AUClast, Median): 114 ng·h/mL | Cmax (Moderate hepatic impairment, single oral dose 20 mg E4 monohydrate, read-out: Cmax, GM): 39.4 ng/mL | Cmax (Moderate hepatic impairment, single oral dose 20 mg E4 monohydrate, read-out: Cmax, Mean): ~52 ng/mL | Cmax (Moderate hepatic impairment, single oral dose 20 mg E4 monohydrate, read-out: Cmax, Median): 41.1 ng/mL | half-life (Moderate hepatic impairment, single oral dose 20 mg E4 monohydrate, read-out: T1/2, GM (converted)): 14.8 h | half-life (Moderate hepatic impairment, single oral dose 20 mg E4 monohydrate, read-out: T1/2, Mean (converted)): 16.6 h | half-life (Moderate hepatic impairment, single oral dose 20 mg E4 monohydrate, read-out: T1/2, Median (converted)): 14.3 h | Tmax (Moderate hepatic impairment, single oral dose 20 mg E4 monohydrate): 0.5 h | Vd/F (Moderate hepatic impairment, single oral dose 20 mg E4 monohydrate, read-out: Vz/F, GM): 3960 L | Vd/F (Moderate hepatic impairment, single oral dose 20 mg E4 monohydrate, read-out: Vz/F, Mean): 4760 L | Vd/F (Moderate hepatic impairment, single oral dose 20 mg E4 monohydrate, read-out: Vz/F, Median): 4150 L | AUC(0-inf) (Normal (Reference), one-way ANOVA, single oral dose 20 mg, read-out: AUCinf, Geometric LS Mean): 104 ng·h/mL | Cmax (Normal (Reference), one-way ANOVA, single oral dose 20 mg, read-out: Cmax, Geometric LS Mean): 20.8 ng/mL | AUC(0-t) (Normal hepatic function, single oral dose 20 mg E4 monohydrate, read-out: AUC0-24 h, GM): 60.4 ng·h/mL | AUC(0-t) (Normal hepatic function, single oral dose 20 mg E4 monohydrate, read-out: AUC0-24 h, Mean): 63.5 ng·h/mL | AUC(0-t) (Normal hepatic function, single oral dose 20 mg E4 monohydrate, read-out: AUC0-24 h, Median): 63.8 ng·h/mL | AUC(0-inf) (Normal hepatic function, single oral dose 20 mg E4 monohydrate, read-out: AUCinf, GM): 104 ng·h/mL | AUC(0-inf) (Normal hepatic function, single oral dose 20 mg E4 monohydrate, read-out: AUCinf, Mean): 108 ng·h/mL | AUC(0-inf) (Normal hepatic function, single oral dose 20 mg E4 monohydrate, read-out: AUCinf, Median): 113 ng·h/mL | AUC(0-t) (Normal hepatic function, single oral dose 20 mg E4 monohydrate, read-out: AUClast, GM): 103 ng·h/mL | AUC(0-t) (Normal hepatic function, single oral dose 20 mg E4 monohydrate, read-out: AUClast, Mean): 107 ng·h/mL | AUC(0-t) (Normal hepatic function, single oral dose 20 mg E4 monohydrate, read-out: AUClast, Median): 111 ng·h/mL | Cmax (Normal hepatic function, single oral dose 20 mg E4 monohydrate, read-out: Cmax, GM): 20.8 ng/mL | Cmax (Normal hepatic function, single oral dose 20 mg E4 monohydrate, read-out: Cmax, Mean): ~24 ng/mL | Cmax (Normal hepatic function, single oral dose 20 mg E4 monohydrate, read-out: Cmax, Median): 24.8 ng/mL | half-life (Normal hepatic function, single oral dose 20 mg E4 monohydrate, read-out: T1/2, GM (converted)): 21.7 h | half-life (Normal hepatic function, single oral dose 20 mg E4 monohydrate, read-out: T1/2, Mean (converted)): 22.3 h | half-life (Normal hepatic function, single oral dose 20 mg E4 monohydrate, read-out: T1/2, Median (converted)): 22.7 h | Tmax (Normal hepatic function, single oral dose 20 mg E4 monohydrate): 0.475 h | Vd/F (Normal hepatic function, single oral dose 20 mg E4 monohydrate, read-out: Vz/F, GM): 6000 L | Vd/F (Normal hepatic function, single oral dose 20 mg E4 monohydrate, read-out: Vz/F, Mean): 6590 L | Vd/F (Normal hepatic function, single oral dose 20 mg E4 monohydrate, read-out: Vz/F, Median): 6430 L | AUC(0-inf) (Severe (Test), one-way ANOVA, single oral dose 20 mg, read-out: AUCinf, Geometric LS Mean): 198 ng·h/mL | Cmax (Severe (Test), one-way ANOVA, single oral dose 20 mg, read-out: Cmax, Geometric LS Mean): 111 ng/mL | AUC(0-t) (Severe hepatic impairment, single oral dose 20 mg E4 monohydrate, read-out: AUC0-24 h, GM): 179 ng·h/mL | AUC(0-t) (Severe hepatic impairment, single oral dose 20 mg E4 monohydrate, read-out: AUC0-24 h, Mean): 184 ng·h/mL | AUC(0-t) (Severe hepatic impairment, single oral dose 20 mg E4 monohydrate, read-out: AUC0-24 h, Median): 172 ng·h/mL | AUC(0-inf) (Severe hepatic impairment, single oral dose 20 mg E4 monohydrate, read-out: AUCinf, GM): 198 ng·h/mL | AUC(0-inf) (Severe hepatic impairment, single oral dose 20 mg E4 monohydrate, read-out: AUCinf, Mean): 205 ng·h/mL | AUC(0-inf) (Severe hepatic impairment, single oral dose 20 mg E4 monohydrate, read-out: AUCinf, Median): 180 ng·h/mL | AUC(0-t) (Severe hepatic impairment, single oral dose 20 mg E4 monohydrate, read-out: AUClast, GM): 196 ng·h/mL | AUC(0-t) (Severe hepatic impairment, single oral dose 20 mg E4 monohydrate, read-out: AUClast, Mean): 204 ng·h/mL | AUC(0-t) (Severe hepatic impairment, single oral dose 20 mg E4 monohydrate, read-out: AUClast, Median): 178 ng·h/mL | Cmax (Severe hepatic impairment, single oral dose 20 mg E4 monohydrate, read-out: Cmax, GM): 111 ng/mL | Cmax (Severe hepatic impairment, single oral dose 20 mg E4 monohydrate, read-out: Cmax, Mean): ~117 ng/mL | Cmax (Severe hepatic impairment, single oral dose 20 mg E4 monohydrate, read-out: Cmax, Median): 109 ng/mL | half-life (Severe hepatic impairment, single oral dose 20 mg E4 monohydrate, read-out: T1/2, GM (converted)): 8.22 h | half-life (Severe hepatic impairment, single oral dose 20 mg E4 monohydrate, read-out: T1/2, Mean (converted)): 8.97 h | half-life (Severe hepatic impairment, single oral dose 20 mg E4 monohydrate, read-out: T1/2, Median (converted)): 6.26 h | Tmax (Severe hepatic impairment, single oral dose 20 mg E4 monohydrate): 0.25 h | Vd/F (Severe hepatic impairment, single oral dose 20 mg E4 monohydrate, read-out: Vz/F, GM): 1200 L | Vd/F (Severe hepatic impairment, single oral dose 20 mg E4 monohydrate, read-out: Vz/F, Mean): 1260 L | Vd/F (Severe hepatic impairment, single oral dose 20 mg E4 monohydrate, read-out: Vz/F, Median): 1220 L | time to primary peak plasma concentration after administration (group of severe hepatic impairment): ≤ 15 min | time post dose until which concentrations remained above LLOQ in at least half of the subjects (mild hepatic impairment): 144 h | time post-dose of last measurable concentration (Clast) (mild hepatic impairment, 192 h = last measured timepoint): 192 h | GM AUCinf compared to the control group (normal hepatic function) [1]: ~ 1.1 fold and 1.120 fold | GM Cmax compared to the control group (normal hepatic function) [1]: ~ 1.7 fold and 1.661 fold | time post dose until which concentrations remained above LLOQ in at least half of the subjects (moderate hepatic impairment): 96 h | time post-dose of last measurable concentration (Clast) (moderate hepatic impairment): 144 h | GM AUCinf compared to the control group (normal hepatic function) [2]: ~ 1.0 fold and 1.032 fold | GM Cmax compared to the control group (normal hepatic function) [2]: ~ 1.9 fold and 1.896 fold | time post dose until which concentrations remained above LLOQ in at least half of the subjects (normal hepatic function): 144 h | time post-dose of last measurable concentration (Clast) (normal hepatic function, 192 h = last measured timepoint): 192 h | time to primary peak plasma concentration after administration (on average, single oral dose 20 mg): ≤ 30 min | time post dose until which concentrations remained above LLOQ in at least half of the subjects (severe hepatic impairment): 48 h | time post-dose of last measurable concentration (Clast) (severe hepatic impairment): 168 h | GM AUCinf compared to the control group (normal hepatic function) [3]: ~ 1.9 fold and 1.894 fold | GM Cmax compared to the control group (normal hepatic function) [3]: ~ 5.4 fold and 5.359 fold | time after which log-linear terminal elimination phase is entered (single oral dose 20 mg): ~ 12 h
